Source: ChEMBL document CHEMBL4052777, “Synthesis of novel hybrids of pyrazole and coumarin as dual inhibitors of COX-2 and 5-LOX” (Bioorg Med Chem Lett, 2017)

How the values were obtained:
HEK-293T = assay: Antiproliferative activity against human 293T cells after 48 hrs by MTT assay; assay type: cell-based
A549 = assay: cells; conditions: Homo sapiens, A549, 48 h
HT-29 = assay: cells; conditions: Homo sapiens, HT-29, 48 h
Description: Antiproliferative activity against human HT-29 cells after 48 hrs by MTT assay

HeLa = assay: cells; conditions: Homo sapiens, 48 h
SMMC-7721 = assay: Antiproliferative activity against human SMMC7721 cells after 48 hrs by MTT assay; assay type: functional, cell-based; conditions: SMMC-7721, 48 h

IC50 (A549) [µM] | IC50 (HT-29) [µM] | IC50 (HeLa) [µM] | IC50 (SMMC-7721) [µM] | Structure (SMILES) | IC50 (HEK-293T) [µM]
21.1 | 22.7 | 42.4 | 19.9 | O=c1ccc2ccc(O)cc2o1 [UMBELLIFERONE] | 190
7.68 | 8.47 | 11.1 | 5.96 | Cc1ccc(-c2cc(C(F)(F)F)nn2-c2ccc(S(N)(=O)=O)cc2)cc1 [CELECOXIB] | 112
